# What was measured:
# Taq polymerase = molecular target: T1, Taq polymerase (Thermus aquaticus, UniProt P19821); assay: Taq polymerase activity assays at low temperature in the presence of additives; assay type: biochemical; details: for Activity of Taq polymerase / Activation: 1.0M 1,5-pentanediol, 0.7M 1,6-hexanediol; for Activity of Taq polymerase: normalized to activity of control at 62° C.; for Activation: change in Taq activity versus control
# T1 construct: purchased Stratagene
# Procedure: The measured polymerase activity, then, is in fact a function of two variables—temperature and additive concentration. The plot of measured activity versus temperature and additive concentration is a two-dimensional surface. While a truly comprehensive search for maximal polymerase activity would entail screening this entire surface, the number of experiments required to do so would of course be impractical. Therefore, polymerase activity was measured first as a function of temperature in the absence of additives and at one given, high additive concentration. The temperature that yielded the maximum activity of the polymerase at that concentration was then targeted for concentration gradient studies.
# First, polymerase activity assays were carried out in the absence of additives and in the presence of 1.0M 1,5-pentanediol and 0.7M 1,6-hexanediol at temperatures between 46 and 62° C. Next, polymerase activity was studied at 53° C. in the presence of concentration gradients of 1,5-pentanediol, 2-pyrrolidone, sulfolane and tetramethylene sulfoxide. The concentrations tested were: 1,5-pentanediol: 1.0, 1.3, 1.5, 2.25, 3.0 and 3.5M; 2-pyrrolidone: 1.25, 1.5, 2.0 and 3.9M; sulfolane: 1.0, 1.5, 2.0 and 2.75M, tetramethylene sulfoxide: 1.0, 1.5, 2.0 and 3.0M.
# [1] = system: human prostate-specific membrane antigen (PSM) cDNA; assay: Pilot low temperature PCR of PSM with 1,5-pentanediol; assay type: biochemical; details: for PSM Specificity: densitometric volume of target band as percent of total volume; for PSM Potency: normalized: 1,3-butanediol (95/72° C.) = 1
# Procedure: Amplification reactions were carried out under the following general conditions. Those skilled in the art will appreciate, however, that to the extent that the conditions (set forth in this application) required for specific experiments described in this example were inconsistent with the following general conditions, limited exceptions to the following general conditions were made The general conditions were as follows: 10 Mm Tris-HCl (Ph 8.8), 50 Mm KCl, 1.5 Mm MgCl2, 0.01% (w/v) gelatin, 0.2 Um primers, 0.06 ng/ul template, 0.2 Mm each Dntp, 0.04 U/ul Taq polymerase. The templates used were bovine brain N-WASP cDNA (1518 bp), a 996 by segment of human myeloid leukocyte c-jun cDNA, a 511 by segment of human prostate-specific membrane antigen (PSM) cDNA, and bovine brain glycolipid transfer protein (GTP) cDNA (660 bp). cDNA synthesis was carried out using the FIRST-STRAND® RT-PCR kit from Stratagene on the respective mRNAs purchased from Clontech. All amplification reactions for gene were carried out using a single master batch of cDNA. Taq polymerase and dNTPs were obtained from Stratagene. Primers were obtained from Genosys. Primer melting temperatures (Tms) were calculated using the Genosys oligo calculator program. The sequences of the primers were as follows.
# Polymerase chain reactions for the N-WASP gene were conducted on a ROBOCYCLER® Gradient 40 thermal cycler from Stratagene using 100 ul solutions in 600 ul thin-walled tubes. For expediency, amplification of c-jun, PSM and GTP was carried out in a ROBOCYCLER® Gradient 96 thermal cycler from Stratagene using 50 ul solutions in 200 ul thin-walled tubes. Prior to Taq polymerase addition, a hotstart protocol was carried out that consisted of an initial cycle of 95° C. for 5 minutes (11) to ensure complete first-strand separation, followed by a cycle of 54° C. for 5 minutes. Amplifications were run for 30 cycles. Denaturation was done for 1 minute at the minimum temperatures that yielded discernable amplification: 92° C. for N-WASP and 95° C. for c-jun, PSM and GTP. Extension was done at 72° C. for periods depending on target length: 2 minutes for N-WASP, 1.5 minutes for c-jun and GTP, and 1 minute for PSM. Annealings were carried out either at fixed concentrations of additives using temperature gradients of 38-56° C. for N-WASP and 44-58° C. for the other targets, or at varying concentrations of additives using fixed temperatures of 41° C. for N-WASP, 50° C. for c-jun and PSM, and 54° C. for GTP.
# Amplification products were analyzed by agarose gel electrophoresis on 0.8% agarose gels in which 20 ul reaction products were loaded with 4 ul loading buffer. Gels were stained with ethidium bromide, visualized on a UV transilluminator (Fisher), and documented by photography. Densitometric quantitation of amplification products was carried out using IMAGE SCANNER® and IMAGE MASTER® software from Amersham Pharmacia. Background correction was done using the software's rolling disc method. […] GTP was used as the target because it has the lowest GC content of the three templates used. PCR reactions were carried out in the presence of 1.0 and 1.5M 1,5-pentanediol under the conditions of 85° C. denaturing and 53° C. extension, using a 50° C. annealing temperature. In addition, 1.5M and 2.0M 1,5-pentandediol were tested using an 80° C. denaturing temperature, with identical annealing and extension temperature. Finally, 2.0, 2.5, and 3.0M 1,5-pentanediol were tested in GTP amplification employing a 75° C. denaturation temperature.
# PSM was also tested with 1.0 and 1.5M 1,5-pentanediol using a 85° C. denaturing/50° C. annealing/53° C. extension. The denaturation temperature was then lowered to 80° C., and 2.5M 1,5-pentanediol tested. Amplification of PSM using a 75° C. denaturing temperature was not attempted.
# [2] = 80/50/53° C., 2.5 M 1,5-pentanediol
# [3] = 85/50/53° C., 1.5 M 1,5-pentanediol
# T1 sequence (P19821 whole entry): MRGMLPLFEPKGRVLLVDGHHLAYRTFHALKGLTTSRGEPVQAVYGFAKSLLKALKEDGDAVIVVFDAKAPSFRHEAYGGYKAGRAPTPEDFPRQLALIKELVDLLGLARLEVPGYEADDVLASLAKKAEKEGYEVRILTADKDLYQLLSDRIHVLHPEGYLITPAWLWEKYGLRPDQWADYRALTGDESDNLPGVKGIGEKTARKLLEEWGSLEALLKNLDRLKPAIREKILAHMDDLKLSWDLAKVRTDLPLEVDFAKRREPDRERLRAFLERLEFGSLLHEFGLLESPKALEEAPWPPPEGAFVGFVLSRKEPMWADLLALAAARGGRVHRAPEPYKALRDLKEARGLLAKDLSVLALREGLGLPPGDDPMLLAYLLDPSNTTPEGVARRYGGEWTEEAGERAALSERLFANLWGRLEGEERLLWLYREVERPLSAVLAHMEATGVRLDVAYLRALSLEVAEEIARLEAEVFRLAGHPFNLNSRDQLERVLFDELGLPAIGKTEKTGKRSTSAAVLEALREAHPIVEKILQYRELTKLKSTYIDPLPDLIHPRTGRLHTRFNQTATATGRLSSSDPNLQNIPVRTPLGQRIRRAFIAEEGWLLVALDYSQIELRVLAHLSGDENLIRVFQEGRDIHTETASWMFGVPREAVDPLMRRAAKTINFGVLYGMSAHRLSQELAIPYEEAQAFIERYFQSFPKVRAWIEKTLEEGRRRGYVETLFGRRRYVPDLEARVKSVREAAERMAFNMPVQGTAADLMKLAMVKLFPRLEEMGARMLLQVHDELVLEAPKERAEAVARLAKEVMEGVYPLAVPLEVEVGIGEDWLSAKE
compound,measurement,setting,value
"OCCCCCO [1,5-Pentanediol]",Activation of Taq polymerase,"Taq polymerase; 1.0M, within 49° C.-53° C.",exceeds 25%
same,Activity of Taq polymerase,Taq polymerase; 47° C.,0.30
same,Activation,Taq polymerase; 47° C.,−9%
same,Activity of Taq polymerase,Taq polymerase; 48° C.,0.40
same,Activation,Taq polymerase; 48° C.,−3%
same,Activity of Taq polymerase,Taq polymerase; 49° C.,0.54
same,Activation,Taq polymerase; 49° C.,+10%
same,Activity of Taq polymerase,Taq polymerase; 50° C.,0.59
same,Activation,Taq polymerase; 50° C.,+18%
same,Activity of Taq polymerase,Taq polymerase; 51° C.,0.64
same,Activation,Taq polymerase; 51° C.,+21%
same,Activity of Taq polymerase,Taq polymerase; 52° C.,0.69
same,Activation,Taq polymerase; 52° C.,+35%
same,Activity of Taq polymerase,Taq polymerase; 53° C.,0.70
same,Taq polymerase activity at 3.5M (in words),"Taq polymerase; 53° C., 3.5M (36.4%)",residual activity
same,Activation,Taq polymerase; 53° C.,+23%
same,effect on Taq polymerase activity at high concentrations (in words),"Taq polymerase; 53° C., concentration gradients, compared with 2-pyrrolidone, sulfolane and tetramethylene sulfoxide",compromises polymerase activity to the least extent
same,Activity of Taq polymerase,Taq polymerase; 54° C.,0.63
same,Activation,Taq polymerase; 54° C.,+3%
same,Activity of Taq polymerase,Taq polymerase; 55° C.,0.57
same,Activation,Taq polymerase; 55° C.,−19%
same,PSM Specificity,[1]; [2],92%
same,PSM Potency,[1]; [2],1.40
same,PSM Potency,"[1]; 80/50/53° C., 2.5 M 1,5-pentanediol, listed as 1,5-pentanediol",Substantial amplification
same,PSM Potency,"[1]; 85/50/53° C., 1.0 M 1,5-pentanediol",0.00
same,PSM Potency,"[1]; 85/50/53° C., 1.0 M 1,5-pentanediol, listed as 1,5-pentanediol",did not amplify the target sequence
same,PSM Specificity,[1]; [3],86%
same,PSM Potency,[1]; [3],2.08
same,PSM Potency,"[1]; 85/50/53° C., 1.5 M 1,5-pentanediol, listed as 1,5-pentanediol",successful

# — patent publication US7772383B2, “Chemical PCR: Compositions for enhancing polynucleotide amplification reactions” (The Trustees of Princeton University, priority 2002, dated 2010)
